Values of other authors, collected in patent US9206425B2, “Methods for treating Niemann-Pick type C disease” (Trustees of Dartmouth College, priority 2011, dated 2015).
pIC50: −log10 of the molar value. Like-named read-outs stand apart in the source and are kept apart here.

Key:
human macrophages = conditions: in vitro
[1] = test system: coronary atherosclerosis / familial hypercholesterolemia
[2] = test system: mouse model for Alzheimer disease
NPC disease = conditions: humans, two-year study
ACAT1 and ACAT2 = conditions: Kitayama et al. 2006
ACAT1 [3] = biological target: T1, ACAT1 (Homo sapiens, UniProt P35610); conditions: Cho et al. 2003
T1 sequence (P35610 1-550): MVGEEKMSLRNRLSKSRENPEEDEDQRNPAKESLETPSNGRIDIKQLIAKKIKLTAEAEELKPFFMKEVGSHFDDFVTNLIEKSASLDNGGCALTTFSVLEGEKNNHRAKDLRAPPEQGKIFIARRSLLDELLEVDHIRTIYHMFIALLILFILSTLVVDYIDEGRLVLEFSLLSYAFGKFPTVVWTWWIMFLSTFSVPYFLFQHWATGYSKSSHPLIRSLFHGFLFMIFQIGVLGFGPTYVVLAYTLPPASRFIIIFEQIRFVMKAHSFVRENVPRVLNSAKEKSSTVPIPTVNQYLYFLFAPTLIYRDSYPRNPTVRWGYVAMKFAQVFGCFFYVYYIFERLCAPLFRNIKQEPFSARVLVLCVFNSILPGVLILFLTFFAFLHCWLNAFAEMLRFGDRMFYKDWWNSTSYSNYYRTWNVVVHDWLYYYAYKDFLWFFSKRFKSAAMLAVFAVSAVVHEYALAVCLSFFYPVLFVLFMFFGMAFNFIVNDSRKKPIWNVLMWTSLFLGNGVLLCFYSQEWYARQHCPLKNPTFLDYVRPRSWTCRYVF

hACAT-2 = biological target: T2, hACAT-2 (Homo sapiens, UniProt O75908)
T2 sequence (O75908 1-522): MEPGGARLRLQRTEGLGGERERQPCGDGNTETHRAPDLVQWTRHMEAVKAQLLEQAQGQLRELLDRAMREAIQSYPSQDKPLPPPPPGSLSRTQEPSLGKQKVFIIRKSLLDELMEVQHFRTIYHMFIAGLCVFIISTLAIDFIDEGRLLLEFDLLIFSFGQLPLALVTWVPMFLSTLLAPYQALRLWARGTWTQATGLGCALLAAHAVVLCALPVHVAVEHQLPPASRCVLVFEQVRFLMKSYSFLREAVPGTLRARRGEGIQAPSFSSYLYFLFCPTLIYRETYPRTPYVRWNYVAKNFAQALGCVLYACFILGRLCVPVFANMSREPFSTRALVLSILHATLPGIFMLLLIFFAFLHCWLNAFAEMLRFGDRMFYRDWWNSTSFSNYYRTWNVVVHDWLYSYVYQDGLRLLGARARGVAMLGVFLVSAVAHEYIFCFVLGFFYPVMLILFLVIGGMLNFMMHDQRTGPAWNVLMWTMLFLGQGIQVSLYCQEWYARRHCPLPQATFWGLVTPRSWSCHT

ACAT1 [4] = biological target: T1, ACAT1; conditions: Lee et al. 2004
[5] = mouse model for Alzheimer disease
[6] = continuous administration starting at PND 7

CC(C)c1cc(C(C)C)c(CC(=O)NS(=O)(=O)Oc2c(C(C)C)cccc2C(C)C)c(C(C)C)c1 [Avasimibe]
safety (administered to rats, dogs, and humans): safe
foam cell formation in macrophages (human macrophages): reduces foam cell formation
progression of coronary atherosclerosis ([1]; humans, in combination with a statin drug): failed to demonstrate efficacy
activity in mouse model for Alzheimer's disease ([2]; 14.4 mg/kg/day): beneficial activity
amyloid plaque load [2, 5]: significant decreases
cognitive deficits [2, 5]: reduction in cognitive deficits

CC(O)COC[C@H]1O[C@@H]2O[C@H]3[C@H](O)[C@@H](O)[C@@H](O[C@H]4[C@H](O)[C@@H](O)[C@@H](O[C@H]5[C@H](O)[C@@H](O)[C@@H](O[C@H]6[C@H](O)[C@@H](O)[C@@H](O[C@H]7[C@H](O)[C@@H](O)[C@@H](O[C@H]8[C@H](O)[C@@H](O)[C@@H](O[C@H]1[C@H](O)[C@H]2O)O[C@@H]8COCC(C)O)O[C@@H]7COCC(C)O)O[C@@H]6COCC(C)O)O[C@@H]5COCC(C)O)O[C@@H]4COCC(C)O)O[C@@H]3COCC(C)O (stereo partly drawn) [HPCD, hydroxypropyl beta-cyclodextrin]
prolonged lifespan (NPC1^−/− mice; single injection at PND 7): 27%
cholesterol accumulation (NPC1^−/− mice; weekly treatment): normalize cholesterol accumulation
survival (NPC1^−/− mice; weekly treatment): prolong survival
crossing the blood brain barrier (NPC mice and NPC cats; mouse, in vivo): difficulty in crossing the blood brain barrier
macrophage activation in the lungs (NPC mice and NPC cats; treated NPC mice and NPC cats): increases in macrophage activation

CSc1cc(C)nc(SC)c1NC(=O)CN1CCN(CCSc2nc3ccccc3[nH]2)CC1 [K-604]
safety in vivo (laboratory animals): safe for use in vivo

CCCCN1C[C@H](O)[C@@H](O)[C@H](O)[C@H]1CO [Miglustat]
clinical onset (NPC1^−/− mice; [6]): significantly delayed
prolonged lifespan (NPC1^−/− mice; [6]): 49%
patients with stabilized NPC disease progression (NPC disease): 80 % of patients

CCCCCCCCN1CCc2c(C)c(CC(=O)O)c(C)c(NC(=O)C(C)(C)C)c21 [Pactimibe]
efficacy as supplement to statin treatment ([1]; patients with familial hypercholesterolemia): lacked efficacy
potency on ACAT1 versus ACAT2 (ACAT1 and ACAT2): approximately equal potency

CCOC(=O)OC(=O)OCC [diethyl pyrocarbonate]
greater activity on ACAT1 compared to ACAT-2 (ACAT1 [3]): 4 fold

COc1ccc([C@@H](O)[C@@H](C)Oc2ccc([C@H]3O[C@H](c4ccc(O[C@H](C)[C@H](O)c5ccc6c(c5)OCO6)c(OC)c4)[C@H](C)[C@H]3C)cc2OC)cc1OC [manassantin B]
inhibition of hACAT-2 (hACAT-2; at 1 mM): 32%

saucerneol B
pIC50 (ACAT1 [4]): 4.37
pIC50 (hACAT-2; Lee et al. 2004): 3.91
